Like-named read-outs stand apart in the source and are kept apart here.
Columns and labels:
Assay type in all cases: cell-based
[1] = biological target: T1, α1β2γ2 GABAA receptor (β2 subunit) (Rattus norvegicus, UniProt P63138); test: two-electrode voltage clamp, % IGABA at […] compound, GABA EC0.[…]
T1 construct: gene Gabrb2; recombinant α1β2γ2 receptor expressed in Xenopus laevis oocytes; with GABAA α1 (Gabra1) and γ2 (Gabrg2) subunits

[2] = biological target: T2, α1β1γ2 GABAA receptor (β1 subunit) (Rattus norvegicus, UniProt P15431); test: two-electrode voltage clamp, potentiation of IGABA at GABA EC10-20
T2 construct: gene Gabrb1; recombinant α1β1γ2 receptor expressed in Xenopus laevis oocytes; with GABAA α1 (Gabra1) and γ2 (Gabrg2) subunits
T2 sequence (P15431 26-474): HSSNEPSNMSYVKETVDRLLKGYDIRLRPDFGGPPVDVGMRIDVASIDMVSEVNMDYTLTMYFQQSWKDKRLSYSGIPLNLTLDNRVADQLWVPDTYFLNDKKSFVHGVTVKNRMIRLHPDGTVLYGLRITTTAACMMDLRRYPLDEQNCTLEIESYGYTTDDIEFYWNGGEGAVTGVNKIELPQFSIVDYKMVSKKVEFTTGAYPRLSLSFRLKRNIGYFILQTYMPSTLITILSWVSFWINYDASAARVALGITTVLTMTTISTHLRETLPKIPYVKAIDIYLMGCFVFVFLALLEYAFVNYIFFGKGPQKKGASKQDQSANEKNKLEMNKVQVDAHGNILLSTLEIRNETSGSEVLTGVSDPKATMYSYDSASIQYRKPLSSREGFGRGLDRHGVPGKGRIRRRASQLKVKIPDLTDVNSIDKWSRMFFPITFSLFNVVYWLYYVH
T2 sequence (P62813 28-455 partner): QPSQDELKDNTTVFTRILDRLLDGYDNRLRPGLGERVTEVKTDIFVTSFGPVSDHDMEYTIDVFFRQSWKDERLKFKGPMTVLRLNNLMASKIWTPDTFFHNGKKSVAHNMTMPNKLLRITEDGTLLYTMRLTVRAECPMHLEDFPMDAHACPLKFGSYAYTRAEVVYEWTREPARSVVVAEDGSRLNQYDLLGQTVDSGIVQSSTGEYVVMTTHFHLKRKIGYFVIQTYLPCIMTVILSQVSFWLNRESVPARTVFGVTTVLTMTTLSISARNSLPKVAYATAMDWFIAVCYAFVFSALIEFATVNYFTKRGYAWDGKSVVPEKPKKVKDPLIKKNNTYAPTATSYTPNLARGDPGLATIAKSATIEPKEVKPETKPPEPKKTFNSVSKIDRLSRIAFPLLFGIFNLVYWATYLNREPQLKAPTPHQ
T2 sequence (P18508 39-466 partner): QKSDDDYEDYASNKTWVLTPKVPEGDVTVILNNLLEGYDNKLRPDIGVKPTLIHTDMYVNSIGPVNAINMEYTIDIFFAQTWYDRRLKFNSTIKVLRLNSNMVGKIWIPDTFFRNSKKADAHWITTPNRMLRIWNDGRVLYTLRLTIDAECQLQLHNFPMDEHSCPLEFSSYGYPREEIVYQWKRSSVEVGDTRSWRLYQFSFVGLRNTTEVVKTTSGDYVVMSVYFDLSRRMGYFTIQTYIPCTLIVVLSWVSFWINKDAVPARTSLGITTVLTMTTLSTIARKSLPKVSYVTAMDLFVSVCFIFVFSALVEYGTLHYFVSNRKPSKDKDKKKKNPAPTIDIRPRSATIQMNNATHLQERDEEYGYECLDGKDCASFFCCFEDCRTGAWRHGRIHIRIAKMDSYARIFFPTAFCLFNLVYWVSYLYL

[3] = biological target: T1, α1β2γ2 GABAA receptor (β2 subunit); test: as above

T1 sequence (P63138 26-474): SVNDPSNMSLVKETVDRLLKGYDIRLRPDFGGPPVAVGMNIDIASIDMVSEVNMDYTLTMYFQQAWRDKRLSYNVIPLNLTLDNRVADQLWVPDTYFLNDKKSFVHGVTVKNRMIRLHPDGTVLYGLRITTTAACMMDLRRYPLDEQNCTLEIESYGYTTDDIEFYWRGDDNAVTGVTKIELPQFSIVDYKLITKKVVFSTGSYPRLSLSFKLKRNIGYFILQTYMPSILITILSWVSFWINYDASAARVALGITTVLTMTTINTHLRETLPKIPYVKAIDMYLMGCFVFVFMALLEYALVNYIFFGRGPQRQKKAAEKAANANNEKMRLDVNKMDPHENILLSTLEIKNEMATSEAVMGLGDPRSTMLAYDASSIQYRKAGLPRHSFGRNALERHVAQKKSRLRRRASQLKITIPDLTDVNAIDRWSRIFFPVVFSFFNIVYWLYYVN
T1 sequence (P62813 28-455 partner): as the sequence (P62813 28-455 partner) above
T1 sequence (P18508 39-466 partner): as the sequence (P18508 39-466 partner) above

C=CCc1ccc(O)c(-c2ccccc2C)c1 [8b]
activation at 3 µM [1]: 207 ± 33%

C=CCc1ccc(O)c(-c2cccc(OC)c2)c1 [8f]
activation at 3 µM [1]: 136 ± 32%

C=CCc1ccc(O)c(-c2ccc(OC)cc2)c1 [8g]
EC50 ([2]; read-out: EC50): 30 µM
EC50 ([3]; read-out: EC50): ~7 µM

C=CCc1ccc(O)c(-c2cccc(C(=O)OC)c2)c1 [8i]
activation at 3 µM [1]: 406 ± 70%

C=CCc1ccc(O)c(-c2cc(CC=C)ccc2O)c1 [compound 1, magnolol]
activation at 3 µM [1]: 338 ± 93%

C=CCc1ccc(O)c(-c2ccc(O)c(CC=C)c2)c1 [compound 2, honokiol]
EC50 [2]: 20 µM
EC50 [3]: 20 µM

— paper PMC4297288, “Metal-assisted synthesis of unsymmetrical magnolol and honokiol analogs and their biological assessment as GABAA receptor ligands” (Bioorganic & Medicinal Chemistry Letters, 2015)
